SMILES strings stand for the structures.

The test relates to HBsAg. In words: HBsAg assay: chemiluminescence immunoassay (CLIA) of secreted HBsAg in supernatant of HepG2.2.15 cells. It is filed as cell-based, HBV. Particulars: Hepatitis B virus. As to the method: HepG2.2.15 cells (Acs et al. Proc Natl Acad Sci USA, 84, (1987), 4641-4), a constitutively HBV-expressing cell line were cultured in DMEM+Glutamax-I medium (Invitrogen, Carlsbad, Calif., USA), supplemented with 10% fetal bovine serum (Invitrogen) and G418 (Invitrogen) at a final concentration of 200 mg/L and maintained in 5% CO2 at 37° C.
HepG2.2.15 cells were seeded in duplicate into white, 96-well plates at 1.5×10^4 cells/well. The cells were treated with a three-fold serial dilution series of the compounds in DMSO. The final DMSO concentration in all wells was 1% and DMSO was used as no drug control.
The HBsAg chemiluminescence immunoassay (CLIA) kit (Autobio Diagnostics Co., Zhengzhou, China, Catalog number: CL0310-2) was used to measure the levels of secreted HBV antigens semi-quantitatively. For the detection 50 μL/well culture supernatant was used and HBsAg was quantified using HBsAg chemiluminescence immunoassay (CLIA) kit (Autobio Diagnostics Co., Zhengzhou, China, Catalog number: CL0310-2), 50 μL of the supernatant was transferred to the CLIA assay plate and 50 μL of enzyme conjugate reagent was added into each well. The plates were sealed and gently agitated for 1 hour at room temperature. The supernatant-enzyme-mixture was discarded and wells were washed 6 times with 300 μL of PBS. The residual liquid was removed by plating the CLIA plate […] on absorbent tissue paper. 25 μL of substrates A and B were added to each well. Luminance was measured using a luminometer (Mithras LB 940 Multimode Microplate Reader) after 10 minutes incubation. Dose-response curves were generated and the IC50 value was extrapolated by using the E-WorkBook Suite (ID Business Solutions Ltd., Guildford, UK). The IC50 was defined as the compound concentration (or conditioned media log dilution) at which HBsAg secretion was reduced by 50% compared to the no drug control.
Take `CN(C(=O)CN1N=C(c2ccc(F)cc2F)CCC1=O)c1ccc(F)c(C(F)(F)F)c1` [Example 1-32, 2-[3-(2,4-Difluorophenyl)-6-oxo-4,5-dihydropyridazin-1-yl]-N-[4-fluoro-3-(trifluoromethyl)phenyl]-N-methyl-acetamide]: the midpoint of inhibition, the IC50, lay at 513 nM.

For `CN(C(=O)CN1N=C(c2ccc(F)cc2F)CCC1=O)c1ccc(Cl)cc1` [Example 1-33, N-(4-Chlorophenyl)-2-[3-(2,4-difluorophenyl)-6-oxo-4,5-dihydropyridazin-1-yl]-N-methyl-acetamide], the 50% inhibitory concentration (IC50) (usually the concentration that gives 50% inhibition) amounted to 850 nM.

In turn, `CN(C(=O)CN1N=C(c2ccc(F)cc2F)CCC1=O)c1cccc(F)c1` [Example 1-34, 2-[3-(2,4-Difluorophenyl)-6-oxo-4,5-dihydropyridazin-1-yl]-N-(3-fluorophenyl)-N-methyl-acetamide] displayed an IC50 of 1250 nM.

`Cc1cc(C2=NN(CC(=O)N(C)c3cccc(C(F)(F)F)c3)C(=O)CC2)ccc1F` [Example 1-35, 2-[3-(4-Fluoro-3-methyl-phenyl)-6-oxo-4,5-dihydropyridazin-1-yl]-N-methyl-N-[3-(trifluoromethyl)phenyl]acetamide] returned an IC50 of 4660 nM.

`Cc1cc(C2=NN(CC(=O)N(C)c3ccc(C(F)(F)F)cc3)C(=O)CC2)ccc1F` [Example 1-36, 2-[3-(4-Fluoro-3-methyl-phenyl)-6-oxo-4,5-dihydropyridazin-1-yl]-N-methyl-N-[4-(trifluoromethyl)phenyl]acetamide] showed a concentration for half-maximal inhibition (IC50) of 3100 nM.

Turning to `Cc1cc(C2=NN(CC(=O)N(C)c3ccc(F)c(C(F)(F)F)c3)C(=O)CC2)ccc1F` [Example 1-37, 2-[3-(4-Fluoro-3-methyl-phenyl)-6-oxo-4,5-dihydropyridazin-1-yl]-N-[4-fluoro-3-(trifluoromethyl)phenyl]-N-methyl-acetamide], half-maximal inhibition (IC50) required 3140 nM.

The compound `Cc1cc(C2=NN(CC(=O)N(C)c3ccc(C(F)(F)F)c(F)c3)C(=O)CC2)ccc1F` [Example 1-38, 2-[3-(4-Fluoro-3-methyl-phenyl)-6-oxo-4,5-dihydropyridazin-1-yl]-N-[3-fluoro-4-(trifluoromethyl)phenyl]-N-methyl-acetamide] came in with an IC50 of 2350 nM.

Regarding `CN(C(=O)CN1N=C(c2ccc(C(F)(F)F)cc2)CCC1=O)c1cccc(Cl)c1` [Example 1-39, N-(3-Chlorophenyl)-N-methyl-2-[6-oxo-3-[4-(trifluoromethyl)phenyl]-4,5-dihydropyridazin-1-yl]acetamide], half-maximal inhibition (IC50) was put at 369 nM.

Compound `CN(C(=O)CN1N=C(c2ccc(C(F)(F)F)cc2)CCC1=O)c1ccc(C(F)(F)F)cc1` [Example 1-40, N-Methyl-2-[6-oxo-3-[4-(trifluoromethyl)phenyl]-4,5-dihydropyridazin-1-yl]-N-[4-(trifluoromethyl)phenyl]acetamide] showed an IC50 of 380 nM.

`CN(C(=O)CN1N=C(c2ccc(C(F)(F)F)cc2)CCC1=O)c1cccc(C(F)(F)F)c1` [Example 1-41, N-Methyl-2-[6-oxo-3-[4-(trifluoromethyl)phenyl]-4,5-dihydropyridazin-1-yl]-N-[3-(trifluoromethyl)phenyl]acetamide]: the half-maximal inhibitory concentration (IC50) is 250 nM.

Turning to `CN(C(=O)CN1N=C(c2ccc(C(F)(F)F)cc2)CCC1=O)c1cccc(F)c1` [Example 1-42, N-(3-Fluorophenyl)-N-methyl-2-[6-oxo-3-[4-(trifluoromethyl)phenyl]-4,5-dihydropyridazin-1-yl]acetamide], the half-maximal inhibitory concentration (IC50) amounted to 520 nM.

As to `CN(C(=O)CN1N=C(c2ccc(C(F)(F)F)cc2)CCC1=O)c1ccc(F)cc1` [Example 1-43, N-(4-Fluorophenyl)-N-methyl-2-[6-oxo-3-[4-(trifluoromethyl)phenyl]-4,5-dihydropyridazin-1-yl]acetamide], the 50% inhibitory concentration (IC50) is 2470 nM. This IC50 is about 4.8-fold higher than that of the compound before.

As for `CN(C(=O)CN1N=C(c2ccc(C(F)(F)F)cc2)CCC1=O)c1ccc(Cl)cc1` [Example 1-44, N-(4-Chlorophenyl)-N-methyl-2-[6-oxo-3-[4-(trifluoromethyl)phenyl]-4,5-dihydropyridazin-1-yl]acetamide], the midpoint of inhibition, the IC50, lay at 960 nM.

Consider `CN(C(=O)CN1N=C(c2ccc(Cl)c(Cl)c2)CCC1=O)c1ccc(C(F)(F)F)cc1` [Example 1-45, 2-[3-(3,4-Dichlorophenyl)-6-oxo-4,5-dihydropyridazin-1-yl]-N-methyl-N-[4-(trifluoromethyl)phenyl]acetamide], for which half-maximal inhibition (IC50) was put at 230 nM.

`CN(C(=O)CN1N=C(c2ccc(Cl)c(Cl)c2)CCC1=O)c1ccc(Cl)cc1` [Example 1-46, N-(4-Chlorophenyl)-2-[3-(3,4-dichlorophenyl)-6-oxo-4,5-dihydropyridazin-1-yl]-N-methyl-acetamide] displayed a 50% inhibitory concentration (IC50) of 420 nM.

As to `CN(C(=O)CN1N=C(c2ccc(F)cc2)CCC1=O)c1ccccc1` [Example 1-47, 2-[3-(4-Fluorophenyl)-6-oxo-4,5-dihydropyridazin-1-yl]-N-methyl-N-phenyl-acetamide], the IC50 is 8930 nM.

The compound `CN(C(=O)CN1N=C(c2ccc(F)cc2)CCC1=O)c1ccc(Cl)cc1` [Example 1-48, N-(4-Chlorophenyl)-2-[3-(4-fluorophenyl)-6-oxo-4,5-dihydropyridazin-1-yl]-N-methyl-acetamide] showed a half-inhibitory concentration (IC50) of 1880 nM.

`CN(C(=O)CN1N=C(c2ccc(Br)cc2)CCC1=O)c1ccccc1` [Example 1-49, 2-[3-(4-Bromophenyl)-6-oxo-4,5-dihydropyridazin-1-yl]-N-methyl-N-phenyl-acetamide] gave an IC50 of 3870 nM.

`CN(C(=O)CN1N=C(c2ccc(Br)cc2)CCC1=O)c1ccc(Cl)cc1` [Example 1-50, 2-[3-(4-Bromophenyl)-6-oxo-4,5-dihydropyridazin-1-yl]-N-(4-chlorophenyl)-N-methyl-acetamide]: half-maximal inhibition (IC50) was put at 1230 nM. Compared with the last compound, the IC50 is about 3.1-fold lower.

Turning to `CN(C(=O)CN1N=C(c2ccc(Br)cc2)CCC1=O)c1ccc(C(F)(F)F)cc1` [Example 1-51, 2-[3-(4-Bromophenyl)-6-oxo-4,5-dihydropyridazin-1-yl]-N-methyl-N-[4-(trifluoromethyl)phenyl]acetamide], the midpoint of inhibition, the IC50, lay at 1160 nM.

Turning to `CN(C(=O)CN1N=C(c2ccc(F)c(F)c2)CCC1=O)c1cccc(C(F)(F)F)c1` [Example 1-52, 2-[3-(3,4-Difluorophenyl)-6-oxo-4,5-dihydropyridazin-1-yl]-N-methyl-N-[3-(trifluoromethyl)phenyl]acetamide], the midpoint of inhibition, the IC50, lay at 470 nM.

The compound `CN(C(=O)CN1N=C(c2ccc(F)c(F)c2)CCC1=O)c1ccc(C(F)(F)F)cc1` [Example 1-53, 2-[3-(3,4-Difluorophenyl)-6-oxo-4,5-dihydropyridazin-1-yl]-N-methyl-N-[4-(trifluoromethyl)phenyl]acetamide] returned a concentration for half-maximal inhibition (IC50) of 860 nM.

On to `CN(C(=O)CN1N=C(c2ccc(Cl)cc2Cl)CCC1=O)c1ccc(Cl)cc1` [Example 1-54, N-(4-Chlorophenyl)-2-[3-(2,4-dichlorophenyl)-6-oxo-4,5-dihydropyridazin-1-yl]-N-methyl-acetamide], for which half-maximal inhibition (IC50) was put at 1930 nM. Compared with the last compound, the IC50 is about 2.2-fold higher.

With `CN(C(=O)CN1N=C(c2ccc(C#N)cc2)CCC1=O)c1ccc(Cl)cc1` [Example 1-55, N-(4-Chlorophenyl)-2-[3-(4-cyanophenyl)-6-oxo-4,5-dihydropyridazin-1-yl]-N-methyl-acetamide], the midpoint of inhibition, the IC50, lay at 3820 nM.

The compound `Cc1ccc(C2=NN(CC(=O)N(C)c3ccc(Cl)cc3)C(=O)CC2)cc1` [Example 1-56, N-(4-Chlorophenyl)-N-methyl-2-[6-oxo-3-(p-tolyl)-4,5-dihydropyridazin-1-yl]acetamide] had a 50% inhibitory concentration (IC50) of 9510 nM.

Take `CN(C(=O)CN1N=C(c2cccc(Cl)c2)CCC1=O)c1ccc(Cl)cc1` [Example 1-57, N-(4-Chlorophenyl)-2-[3-(3-chlorophenyl)-6-oxo-4,5-dihydropyridazin-1-yl]-N-methyl-acetamide]: the concentration for half-maximal inhibition (IC50) was 3020 nM.

For the compound `CN(C(=O)Cn1nc(-c2ccc(Cl)cc2)ccc1=O)c1ccc(C(F)(F)F)cc1` [Example 2-1, 2-[3-(4-Chlorophenyl)-6-oxo-pyridazin-1-yl]-N-methyl-N-[4-(trifluoromethyl)phenyl]acetamide], the IC50 came out at 900 nM.

In turn, `CN(C(=O)Cn1nc(-c2ccc(Cl)c(F)c2)ccc1=O)c1ccc(C(F)(F)F)cc1` [Example 2-2, 2-[3-(4-Chloro-3-fluorophenyl)-6-oxo-pyridazin-1-yl]-N-methyl-N-[4-(trifluoromethyl)phenyl]acetamide] returned an IC50 of 520 nM. This IC50 is about 1.7-fold lower than that of the compound before.

Compound `CN(C(=O)Cn1nc(-c2ccc(Cl)cc2F)ccc1=O)c1ccc(C(F)(F)F)cc1` [Example 2-3, 2-[3-(4-Chloro-2-fluoro-phenyl)-6-oxo-pyridazin-1-yl]-N-methyl-N-[4-(trifluoromethyl)phenyl]acetamide] yielded a half-maximal inhibitory concentration (IC50) of 1500 nM. Compared with the last compound, the IC50 is about 2.9-fold higher.

In turn, `CN(C(=O)Cn1nc(-c2c(F)cccc2Cl)ccc1=O)c1ccc(C(F)(F)F)cc1` [Example 2-4, 2-[3-(2-Chloro-6-fluoro-phenyl)-6-oxo-pyridazin-1-yl]-N-methyl-N-[4-(trifluoromethyl)phenyl]acetamide] showed a half-inhibitory concentration (IC50) of 4760 nM. Compared with the last compound, the IC50 is about 3.2-fold higher.

Values taken from patent publication US9902701B2, “Pyridazones and triazinones for treatment and prophylaxis of hepatitis B virus infection” (priority 2014, dated 2018).
